According to ChEMBL document CHEMBL2074376, “Differential regulation of mdr genes in response to 2-acetylaminofluorene treatment in cultured rat and human hepatocytes” (Carcinogenesis, 1996):

How the values were obtained:
[1] = biological target: ATP-dependent translocase ABCB1 (Homo sapiens, UniProt P08183); test: (§1) TP_TRANSPORTER: Northern blot from primary hepatocytes; format: functional, cell-based, Hepatocyte
[2] = biological target: ATP-dependent translocase ABCB1 (Rattus norvegicus, UniProt P43245); test: as §1; format: functional, cell-based, Hepatocyte
Chain of ATP-dependent translocase ABCB1 (Rattus norvegicus, UniProt P43245) (P43245 whole entry): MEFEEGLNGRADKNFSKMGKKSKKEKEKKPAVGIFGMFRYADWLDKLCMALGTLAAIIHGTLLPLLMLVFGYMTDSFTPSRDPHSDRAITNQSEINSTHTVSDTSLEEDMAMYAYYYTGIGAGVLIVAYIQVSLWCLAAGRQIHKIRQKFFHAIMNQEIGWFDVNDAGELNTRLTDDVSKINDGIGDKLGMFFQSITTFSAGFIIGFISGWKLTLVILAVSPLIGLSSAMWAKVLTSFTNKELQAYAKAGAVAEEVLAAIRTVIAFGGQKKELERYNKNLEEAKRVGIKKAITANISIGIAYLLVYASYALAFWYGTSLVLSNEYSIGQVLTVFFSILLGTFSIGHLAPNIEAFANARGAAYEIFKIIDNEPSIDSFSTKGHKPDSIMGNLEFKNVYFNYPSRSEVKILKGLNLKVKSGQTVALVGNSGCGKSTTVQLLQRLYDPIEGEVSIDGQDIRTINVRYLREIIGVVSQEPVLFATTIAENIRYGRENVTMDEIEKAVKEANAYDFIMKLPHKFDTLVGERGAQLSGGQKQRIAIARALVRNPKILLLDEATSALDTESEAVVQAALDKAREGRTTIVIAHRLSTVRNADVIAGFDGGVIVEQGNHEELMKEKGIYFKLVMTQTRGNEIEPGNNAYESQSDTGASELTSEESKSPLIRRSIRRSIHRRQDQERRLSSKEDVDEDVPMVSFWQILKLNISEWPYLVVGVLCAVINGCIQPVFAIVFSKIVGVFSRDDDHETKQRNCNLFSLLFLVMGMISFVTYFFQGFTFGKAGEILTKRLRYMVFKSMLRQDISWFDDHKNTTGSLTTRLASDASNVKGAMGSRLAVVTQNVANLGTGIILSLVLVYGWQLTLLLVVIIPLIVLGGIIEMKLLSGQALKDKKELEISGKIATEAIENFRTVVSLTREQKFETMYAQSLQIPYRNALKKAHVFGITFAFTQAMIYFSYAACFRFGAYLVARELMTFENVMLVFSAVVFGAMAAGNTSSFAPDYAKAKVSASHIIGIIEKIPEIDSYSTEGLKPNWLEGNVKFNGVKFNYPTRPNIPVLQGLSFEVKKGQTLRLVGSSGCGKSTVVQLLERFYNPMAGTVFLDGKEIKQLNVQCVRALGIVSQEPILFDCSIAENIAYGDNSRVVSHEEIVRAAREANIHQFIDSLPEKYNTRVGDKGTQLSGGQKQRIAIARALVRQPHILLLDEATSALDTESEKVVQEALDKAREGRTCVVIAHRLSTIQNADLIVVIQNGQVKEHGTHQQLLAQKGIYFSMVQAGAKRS

Chain of ATP-dependent translocase ABCB1 (Homo sapiens, UniProt P08183) (P08183 whole entry): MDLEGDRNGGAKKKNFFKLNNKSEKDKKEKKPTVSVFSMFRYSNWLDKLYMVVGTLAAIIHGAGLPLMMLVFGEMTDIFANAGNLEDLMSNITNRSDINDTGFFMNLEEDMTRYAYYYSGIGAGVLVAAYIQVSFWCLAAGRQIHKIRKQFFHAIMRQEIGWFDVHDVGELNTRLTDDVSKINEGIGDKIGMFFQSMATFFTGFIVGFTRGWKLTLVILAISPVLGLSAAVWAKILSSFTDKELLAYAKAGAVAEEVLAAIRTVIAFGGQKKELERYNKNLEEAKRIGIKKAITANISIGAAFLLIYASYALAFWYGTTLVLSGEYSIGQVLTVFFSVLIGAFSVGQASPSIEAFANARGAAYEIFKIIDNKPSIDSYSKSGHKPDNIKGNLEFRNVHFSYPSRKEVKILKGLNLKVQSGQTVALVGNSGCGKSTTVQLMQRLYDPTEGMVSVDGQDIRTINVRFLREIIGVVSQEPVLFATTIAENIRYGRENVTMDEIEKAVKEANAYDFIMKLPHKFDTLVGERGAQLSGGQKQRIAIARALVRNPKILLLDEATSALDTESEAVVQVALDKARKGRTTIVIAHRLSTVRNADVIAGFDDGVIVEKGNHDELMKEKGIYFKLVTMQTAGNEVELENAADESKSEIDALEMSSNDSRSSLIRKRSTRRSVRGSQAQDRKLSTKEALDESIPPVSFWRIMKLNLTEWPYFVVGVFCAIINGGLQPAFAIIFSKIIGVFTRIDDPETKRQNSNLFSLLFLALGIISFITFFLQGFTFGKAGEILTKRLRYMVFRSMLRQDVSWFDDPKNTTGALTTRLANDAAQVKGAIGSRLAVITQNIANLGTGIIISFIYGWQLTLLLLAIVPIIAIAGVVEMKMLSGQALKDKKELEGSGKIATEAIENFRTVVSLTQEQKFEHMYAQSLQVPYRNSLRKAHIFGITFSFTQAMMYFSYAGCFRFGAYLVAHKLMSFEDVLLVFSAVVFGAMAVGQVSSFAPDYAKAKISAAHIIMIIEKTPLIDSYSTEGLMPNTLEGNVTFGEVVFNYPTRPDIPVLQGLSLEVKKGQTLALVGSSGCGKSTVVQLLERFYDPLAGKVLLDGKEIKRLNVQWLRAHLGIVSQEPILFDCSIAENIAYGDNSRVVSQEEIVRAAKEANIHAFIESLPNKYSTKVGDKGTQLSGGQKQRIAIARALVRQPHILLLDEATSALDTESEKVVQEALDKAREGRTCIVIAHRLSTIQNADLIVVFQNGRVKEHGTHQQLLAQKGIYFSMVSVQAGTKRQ

CC(=O)Nc1ccc2c(c1)Cc1ccccc1-2 [2-ACETYLAMINOFLUORENE]
Activity [1]: is not an inducer [-]
Activity [2]: inducer [+]
